Measurements published in patent EP2990415B1, “Cyclic beta defensins analogs for the treatment of infections” (Ceinge Biotecnologie Avanzate S.C. a R.L., priority 2014, dated 2016).
Bridge positions count the residues as written; N and C are the ends. Ends that are not written are not given here. Peptide text beside a SMILES is read from it.

Assays:
[1] = tested on: P. aeruginosa, E. coli and E. faecalis; assay type: cell-based
Method: (§1) A CFU assay of the antibacterial activity of the peptides of the present invention against Pseudomonas aeruginosa ATCC (American Type Culture Collection, Manassas, VA, USA) 27853, Enterococcus faecalis ATCC 29212 and Escherichia coli ATCC 25922 was performed as follows. The strains were grown in aerobic conditions in tryptic soy broth (Difco Laboratories, Detroit, MI, USA) at 37°C and incubated in the presence of hBDs for 2 h at 37°C. We used two concentrations of peptides, i.e., 2.5 µM and 12.5 µM. For salt-dependence assay, 0, 50, 100 and 200 mM NaCl were included in the incubation buffer as previously described (1). Each assay was performed in triplicate. Bactericidal activity (mean and SD of three assays) is expressed as the ratio between colonies counted and the number of colonies on a control plate. The minimal inhibitory concentration (MIC) of the peptide SEQ ID No. 25 was determined with a modified version of the microbroth dilution assay of the National Committee for Clinical Laboratory Standards using a final inoculum of 10^5 CFU/ml. The following peptide concentrations were used: 100.0, 50.0, 25.0, 12.5, 6.25, 3.12 and 1.56 µM.

[2] = tested on: Enterococcus faecalis ATCC 29212; assay type: cell-based; details: 12.5 µM
Method: as §1

[3] = tested on: Pseudomonas aeruginosa ATCC 27853; assay type: cell-based; details: 12.5 µM
Method: as §1

[4] = tested on: Escherichia coli ATCC 25922; assay type: cell-based; details: 12.5 µM
Method: as §1

HSV-1 [5] = details: reported elsewhere; cited from earlier work
HSV-1 [6] = assay: Inhibition of HSV infectivity on Vero cell monolayers (co-exposure, virus pre-exposure, cell pre-exposure, post-exposure); assay type: cell-based
Method: Vero cells were grown in Dulbecco's modified Eagle's medium (DMEM) supplemented with 10% fetal calf serum. HSV-1 carrying a lacZ gene driven by the cytomegalovirus (CMV) IE-1 promoter to express beta-galactosidase was propagated as described elsewhere (Galdiero S, Falanga A, Vitiello M, D'Isanto M, Cantisani M, Kampanaraki A, Benedetti E, Browne H, Galdiero M. Peptides. 2008 Sep;29(9):1461-71). All experiments were conducted in parallel with no-peptide controls. […] Non-penetrated viruses were inactivated by citrate buffer at pH 3.0. Monolayers were fixed, stained with 5-bromo-4-chloro-3-indolyl-beta-D-galactopyranoside (X-gal) and plaque numbers were scored. Experiments were performed in triplicate and the percentage of inhibition was calculated with respect to no-peptide control experiments; ii) For "virus pre-exposure" experiments, […] monolayers; iii) For "cell pre-exposure" experiments, Vero cells were incubated with 20 µM of peptides for 30 min at 4°C and infected with serial dilutions of HSV-1 for 45 min at 37°C; and iv) For "post-exposure" experiments, Vero cell monolayers were incubated with virus for 45 minutes at 37°C and afterwards the peptide was added to the inoculum followed by an additional incubation period of 30 minutes at 37°C.
The antiviral activity was evaluated in co-exposure experiments (with cell, virus, and peptide at zero time), virus pre-exposure experiments (virus plus peptide before cell infection), cell pre-exposure experiments (cell plus peptide before virus infection) and post-treatment (cell plus virus before peptide addition) in order to evaluate in which phase, if any, the peptides could inhibit virus infectivity. […] Both in the co-exposure and virus pre-treatment experiments, the oxidized SEQ. […]

Question: For `CC[C@H](C)[C@@H]1NC(=O)[C@H](CCCCN)NC(=O)[C@H]([C@@H](C)O)NC(=O)[C@H](Cc2ccccc2)NC(=O)[C@H]([C@@H](C)CC)NC(=O)[C@@H]2CCCN2C(=O)[C@@H](N)CSSC[C@@H](C(=O)NCC(=O)NCC(=O)N[C@@H](CCCNC(=N)N)C(=O)N[C@@H](CCCNC(=N)N)C(=O)N[C@@H](CCCCN)C(=O)N[C@@H](CCCCN)C(N)=O)NC(=O)[C@H]([C@@H](C)O)NC(=O)CNC(=O)[C@H](CCC(N)=O)NC1=O` [SEQ ID No. 25] (H-CPIFTKIQGTCGGRRKK-NH2; disulfide 1-11), which MIC [1] is on record?
Answer: 12.5 to 25.0 µM

Question: With “hBD1: human β-defensin 1, wild-type reference peptide (DHYNCVSSGGQCLYSACPIFTKIQGTCYRGKAKCCK; ends and bridges not checked; cysteine pairing not given here; UniProt P60022 33-68, looked up)” as the compound, how does the antibacterial effect [2] read?
Answer: strong antibacterial effect

Question: What about the antibacterial effect [3] of the same compound?
Answer: strong antibacterial effect

Question: And the antibacterial effect [4]?
Answer: strong antibacterial effect

Question: With “GIINTLQKYYCRVRGGRCAVLSCLPKEEQIGKCSTRGRKCCRRKK (disulfide 11-40, 18-33, 23-41 (inferred)) [hBD3]” as the compound, how does the “antiviral activity of oxidized versus reduced form” value (HSV-1 [5]) read?
Answer: the same antiviral activity

Question: What about the antibacterial effect [2] of the same compound?
Answer: strong antibacterial effect

Question: And the antibacterial effect [3]?
Answer: strong antibacterial effect

Question: What about the antibacterial effect [4] of the same compound?
Answer: strong antibacterial effect

Question: What about the Peptide inhibition (HSV-1 [6]; Cell Pre-treatment at 4°C, 1 uM) of the same compound?
Answer: 53.5

Question: And the Peptide inhibition (HSV-1 [6]; Cell Pre-treatment at 4°C, 5 uM)?
Answer: 41

Question: What about the Peptide inhibition (HSV-1 [6]; Cell Pre-treatment at 4°C, 10 uM) of the same compound?
Answer: 27

Question: And the Peptide inhibition (HSV-1 [6]; Cell Pre-treatment at 4°C, 20 uM)?
Answer: 22

Question: And the Peptide inhibition (HSV-1 [6]; Cell Pre-treatment at 4°C, 50 uM)?
Answer: 18

Question: And the Peptide inhibition (HSV-1 [6]; Cell Pre-treatment at 4°C, 150 uM)?
Answer: 1

Question: What about the Peptide inhibition (HSV-1 [6]; Cell Pre-treatment at 4°C, 1000 uM) of the same compound?
Answer: 5

Question: And the Peptide inhibition (HSV-1 [6]; Co-treatment at 37°C, 1 uM)?
Answer: 79

Question: And the Peptide inhibition (HSV-1 [6]; Co-treatment at 37°C, 5 uM)?
Answer: 60

Question: What about the Peptide inhibition (HSV-1 [6]; Co-treatment at 37°C, 10 uM) of the same compound?
Answer: 43

Question: And the Peptide inhibition (HSV-1 [6]; Co-treatment at 37°C, 20 uM)?
Answer: 32

Question: What about the Peptide inhibition (HSV-1 [6]; Co-treatment at 37°C, 50 uM) of the same compound?
Answer: 17.5

Question: And the Peptide inhibition (HSV-1 [6]; Co-treatment at 37°C, 150 uM)?
Answer: 6.5

Question: And the Peptide inhibition (HSV-1 [6]; Co-treatment at 37°C, 1000 uM)?
Answer: 9

Question: What about the Peptide inhibition (HSV-1 [6]; Virus Pre-treatment at 37°C, 1 uM) of the same compound?
Answer: 64

Question: What about the Peptide inhibition (HSV-1 [6]; Virus Pre-treatment at 37°C, 5 uM) of the same compound?
Answer: 52

Question: And the Peptide inhibition (HSV-1 [6]; Virus Pre-treatment at 37°C, 10 uM)?
Answer: 33

Question: What about the Peptide inhibition (HSV-1 [6]; Virus Pre-treatment at 37°C, 20 uM) of the same compound?
Answer: 31

Question: And the Peptide inhibition (HSV-1 [6]; Virus Pre-treatment at 37°C, 50 uM)?
Answer: 20

Question: What about the Peptide inhibition (HSV-1 [6]; Virus Pre-treatment at 37°C, 150 uM) of the same compound?
Answer: 8.5

Question: And the Peptide inhibition (HSV-1 [6]; Virus Pre-treatment at 37°C, 1000 uM)?
Answer: 10

Question: And the IC50 (HSV-1 [6]; antiviral activity against HSV-1 on Vero cells)?
Answer: 10 µM
